Read-outs that look alike come from different tables or passages of the source.
Tests used:
[1] = tested on: Dengue serotype 2 New Guinea C (NGC) strain; test: DENV-2 Huh-7 EC50 (qPCR of viral RNA in infected Huh7 cells); assay type: cell-based; conditions: MOI=0.1, 48 hours
How it was run: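 Huh7 cells were infected 2 h at 37 °C with DENV-2 NGC at MOI 0.1, then plated with graded compound doses (0.25% DMSO) in triplicate for 48 h. Viral RNA was quantified by duplex TaqMan qPCR against GAPDH. EC50 was normalized to positive and no-compound controls.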

[2] = tested on: Human hepatocarcinoma 7 (Huh7) cells; test: Huh-7 CC50 (CellTiter Glo viability); assay type: cell-based; conditions: 48 hours
How it was run: (§1)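 Huh7 cells in 10% FCS DMEM plated at 1-2×10^4 per well in triplicate with graded compound doses, 0.25% DMSO throughout. Viability after 48 hours by CellTiter Glo luminescence, normalized to no-compound and no-cell controls; CC50 from curve fitting.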

[3] = tested on: RSV strain A2; test: RSV HEp-2 EC50 (infectious cytopathic cell protection assay); assay type: cell-based, RSV strain A2; HEp-2 cells; conditions: read-out: RSV Hep-2 EC50
How it was run: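 HEp-2 cells (50,000/mL) infected with titered RSV stock, added onto compound in 3-fold serial dilutions; 4 days at 37 °C. Cell viability read by CellTiter-Glo luminescence; percent inhibition of virus-induced cytopathic effect derived from remaining viability against 0% and 100% inhibition controls.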

[4] = tested on: uninfected HEp-2 cells; test: HEp-2 CC50 (cytotoxicity in uninfected HEp-2 cells); assay type: cell-based; conditions: 4 days, CellTiter Glo
Experimental: (§2) Instead, an uninfected cell mixture at the same density is added at 20 uL/well to plates containing prediluted compounds, also at 100 nL/sample. Assay plates are then incubated for 4 days followed by a cell viability test using the same CellTiter Glo reagent addition and measurement of luminescent readouts. Untreated cell and cells treated at 2 μM puromycin (Sigma, St. Louis, MO) serve as 100% and 0% cell viability control, respectively.

[5] = tested on: Dengue 2, New Guinea strain (NGC); test: DENV-2 moDC EC50 (qPCR of viral RNA in infected moDCs); assay type: cell-based, New Guinea strain (NGC); human moDCs; conditions: human moDCs infected with Dengue 2 NGC, MOI=0.1, 48 hours
Experimental: Example 82. DENV-2 moDC EC50
Human monocyte-derived dendritic cells (moDCs) were derived from CD14+ monocytes (AllCells) cultured in Human Mo-DC Differentiation medium containing GM-CSF and IL-4 (Miltenyi Biotec). On day 7, moDCs were harvested by mechanical disruption, washed and suspended in serum-free RPMI. moDCs were infected with Vero-derived Dengue 2, New Guinea strain (NGC) at a MOI=0.1 for two hours in serum-free RPMI with gentle agitation at 37° C. Cells were washed and resuspended in 10% serum-containing RPMI (Gibco, supplemented with sodium pyruvate, NEAA, Penicillin-Streptomycin). […] were plated in triplicate in 96-well plates with compounds dispensed at graded doses (Hewlett-Packard D300 Digital Dispenser). All wells were normalized to 0.25% DMSO. At 48 hours, cells were washed with 1×PBS and all supernatants removed. Total RNA was extracted using RNEasy 96 plates (Qiagen) and used to generate first-strand cDNA using XLT cDNA 5× Supermix (QuantaBio). cDNA was used as a template in a Taqman qPCR duplex reaction specific to DENV2 viral and GAPDH gene expression. EC50 values were determined using Prism Graphpad software, with normalization to a positive control and no compound negative control wells.

[6] = tested on: Human monocyte-derived dendritic cells (moDCs); test: moDC CC50 (CellTiter Glo viability); assay type: cell-based; conditions: uninfected moDCs, 48 hours
Experimental: (§3) Human monocyte-derived dendritic cells (moDCs) were derived from CD14+ monocytes (AllCells) cultured in Human Mo-DC Differentiation medium containing GM-CSF and IL-4 (Miltenyi Biotec). On day 7, moDCs were harvested by mechanical disruption, washed and cultured in triplicate at […] cells/well in 96-well plates with compounds dispensed at graded doses (Hewlett-Packard D300 Digital Dispenser). All wells were normalized to 0.25% DMSO. After 48 hours, CellTiter Glo (Promega) was added and incubated for 10 minutes at room temp before reading on a luminometer. % viability curves were calculated against no compound and no cell control wells. CC50 values were determined using Prism Graphpad software.

[7] = moDC CC50 (CellTiter Glo viability); assay type: cell-based, Human; conditions: human, uninfected moDCs
Experimental: as §3

[8] = Huh-7 CC50 (CellTiter Glo viability); assay type: cell-based, Human; conditions: human, Huh7 hepatocarcinoma cells
How it was run: as §1

[9] = HEp-2 CC50 (cytotoxicity in uninfected HEp-2 cells); assay type: cell-based; conditions: human, CellTiter Glo
Experimental: as §2

[10] = Huh7 cells infected with Dengue serotype 2 NGC
[11] = HEp-2 cells infected with RSV A2, 4 days, Cell TiterGlo
[12] = Dengue virus, DENV2, Huh-7, Huh7 cells infected with Dengue serotype 2 NGC
[13] = human respiratory syncytial virus, HEp-2, 96 h

| Compound | EC50 [1, 10] | CC50 [2] | EC50 [3, 11] | CC50 [4] | EC50 [5] | CC50 [6] | EC50 ([5]; Dengue virus) | CC50 at 48 h [7] | EC50 [1, 12] | CC50 at 48 h [8] | EC50 [3, 13] | CC50 at 4 days [9] |
| --- | --- | --- | --- | --- | --- | --- | --- | --- | --- | --- | --- | --- |
| CCOC(=O)[C@H](C)NP(=O)(OC[C@@]1(CF)O[C@@H](c2ccc3c(N)ncnn23)[C@H](O)[C@@H]1O)Oc1ccc(C(C)(C)C)cc1 (single isomer, unassigned) [Example 48] | 0.39 µM | 15.4 µM | 0.215 µM | 30.2 µM | – | – | – | – | – | – | – | – |
| CCOC(=O)[C@H](C)NP(=O)(OC[C@@]1(CF)O[C@@H](c2ccc3c(N)ncnn23)[C@H](O)[C@@H]1O)Oc1ccc(C(C)(C)C)cc1 (single isomer, unassigned) [Example 49] | 0.334 µM | > 25 µM | 0.225 µM | > 100 µM | – | – | – | – | – | – | – | – |
| C[C@H](NP(=O)(OC[C@@]1(CF)O[C@@H](c2ccc3c(N)ncnn23)[C@H](O)[C@@H]1O)Oc1ccccc1)C(=O)OCC(C)(C)C(F)(F)F (single isomer, unassigned) [Example 54] | 0.409 µM | > 25 µM | 0.18 µM | > 100 µM | 0.241 µM | 3.25 µM | – | – | – | – | – | – |
| C[C@H](NP(=O)(OC[C@@]1(CF)O[C@@H](c2ccc3c(N)ncnn23)[C@H](O)[C@@H]1O)Oc1ccccc1)C(=O)OCC(C)(C)C(F)(F)F (single isomer, unassigned) [Example 55] | 0.611 µM | > 25 µM | 0.15 µM | > 100 µM | 0.103 µM | 4.19 µM | – | – | – | – | – | – |
| CC(=O)O[C@H]1[C@H](c2ccc3c(N)ncnn23)O[C@](CF)(COP(=O)(N[C@@H](C)C(=O)OC2CCCCC2)Oc2ccccc2)[C@H]1OC(C)=O (stereo partly drawn) [Example 15, (2R,3S,4S,5S)-5-(4-aminopyrrolo[2,1-f][1,2,4]triazin-7-yl)-2-((((((S)-1-(cyclohexyloxy)-1-oxopropan-2-yl)amino)(Phenoxy)phosphoryl)oxy)methyl)-2-(fluoromethyl)tetrahydrofuran-3,4-diyl diacetate] | 1.63 µM | > 25 µM | 1.46 µM | > 50 µM | – | – | – | – | – | – | – | – |
| CCC(=O)O[C@H]1[C@H](c2ccc3c(N)ncnn23)O[C@](CF)(COP(=O)(N[C@@H](C)C(=O)OC2CCCCC2)Oc2ccccc2)[C@H]1OC(=O)CC (stereo partly drawn) [Example 16, (2R,3S,4S,5S)-5-(4-aminopyrrolo[2,1-f][1,2,4]triazin-7-yl)-2-((((((S)-1-(cyclohexyloxy)-1-oxopropan-2-yl)amino)(Phenoxy)phosphoryl)oxy)methyl)-2-(fluoromethyl)tetrahydrofuran-3,4-diyl dipropionate] | 0.736 µM | 13.4 µM | 1.1 µM | 33 µM | 0.214 µM | 3.8 µM | – | – | – | – | – | – |
| CCOC(=O)[C@H](C)NP(=O)(OC[C@@]1(CF)O[C@@H](c2ccc3c(N)ncnn23)[C@H](OC(=O)CC)[C@@H]1OC(=O)CC)Oc1ccccc1 (stereo partly drawn) [Example 25, (2R,3S,4S,5S)-5-(4-aminopyrrolo[2,1-f][1,2,4]triazin-7-yl)-2-((((((S)-1-ethoxy-1-oxopropan-2-yl)amino)(Phenoxy)phosphoryl)oxy)methyl)-2-(fluoromethyl) tetrahydrofuran-3,4-diyl dipropionate] | 0.291 µM | > 25 µM | 0.919 µM | 70 µM | 0.213 µM | – | – | – | – | – | – | – |
| CCC(=O)O[C@H]1[C@H](c2ccc3c(N)ncnn23)O[C@](CF)(COP(=O)(N[C@@H](C)C(=O)OC)Oc2ccccc2)[C@H]1OC(=O)CC (stereo partly drawn) [Example 33, (2R,3S,4S,5S)-5-(4-aminopyrrolo[2,1-f][1,2,4]triazin-7-yl)-2-(fluoromethyl)-2-((((((S)-1-methoxy-1-oxopropan-2-yl)amino)(phenoxy)phosphoryl)oxy)methyl)tetrahydrofuran-3,4-diyl dipropionate] | 0.811 µM | > 25 µM | 1.22 µM | 43.3 µM | – | – | – | – | – | – | – | – |
| COC(C)(C)COC(=O)[C@H](C)NP(=O)(OC[C@@]1(CF)O[C@@H](c2ccc3c(N)ncnn23)[C@H](O)[C@@H]1O)Oc1ccccc1 (stereo partly drawn) [Example 43, 2-methoxy-2-methylpropyl ((((2R,3S,4R,5S)-5-(4-aminopyrrolo[2,1-f][1,2,4]triazin-7-yl)-2-(fluoromethyl)-3,4-dihydroxytetrahydrofuran-2-yl)methoxy)(phenoxy)phosphoryl)-L-alaninate] | – | – | – | – | – | – | 0.626 µM | 17.9 µM | 1.2 µM | > 25 µM | 2.16 µM | > 100 µM |
| CCOCCOCCOC(=O)[C@H](C)NP(=O)(OC[C@@]1(CF)O[C@@H](c2ccc3c(N)ncnn23)[C@H](O)[C@@H]1O)Oc1ccccc1 (stereo partly drawn) [Example 45, 2-(2-ethoxyethoxy)ethyl ((((2R,3S,4R,5S)-5-(4-aminopyrrolo[2,1-f][1,2,4]triazin-7-yl)-2-(fluoromethyl)-3,4-dihydroxytetrahydrofuran-2-yl)methoxy)(phenoxy)phosphoryl)-L-alaninate] | – | – | – | – | – | – | > 5 µM | > 25 µM | 4.58 µM | > 25 µM | 21.8 µM | > 100 µM |
| CCCCCOC(=O)[C@H](C)NP(=O)(OC[C@@]1(CF)O[C@@H](c2ccc3c(N)ncnn23)[C@H](O)[C@@H]1O)Oc1ccccc1 (stereo partly drawn) [Example 59, pentyl ((((2R,3S,4R,5S)-5-(4-aminopyrrolo[2,1-f][1,2,4]triazin-7-yl)-2-(fluoromethyl)-3,4-dihydroxytetrahydrofuran-2-yl)methoxy)(phenoxy)phosphoryl)-L-alaninate] | – | – | – | – | – | – | 0.062 µM | 7.04 µM | 0.153 µM | 11.3 µM | 0.298 µM | 45.1 µM |
| CCCC(CCC)COC(=O)[C@H](C)NP(=O)(OC[C@@]1(CF)O[C@@H](c2ccc3c(N)ncnn23)[C@H](O)[C@@H]1O)Oc1ccccc1 (stereo partly drawn) [Example 68, 2-propylpentyl ((((2R,3S,4R,5S)-5-(4-aminopyrrolo[2,1-f][1,2,4]triazin-7-yl)-2-(fluoromethyl)-3,4-dihydroxytetrahydrofuran-2-yl)methoxy)(phenoxy)phosphoryl)-L-alaninate] | – | – | – | – | – | – | 0.169 µM | 6.26 µM | 0.278 µM | > 25 µM | 0.141 µM | > 100 µM |
| CC(C)COC(=O)[C@H](C)NP(=O)(OC[C@@]1(CF)O[C@@H](c2ccc3c(N)ncnn23)[C@H](O)[C@@H]1O)Oc1ccccc1 (stereo partly drawn) [Example 70, isobutyl ((((2R,3S,4R,5S)-5-(4-aminopyrrolo[2,1-f][1,2,4]triazin-7-yl)-2-(fluoromethyl)-3,4-dihydroxytetrahydrofuran-2-yl)methoxy)(phenoxy)phosphoryl)-L-alaninate] | – | – | – | – | – | – | 0.19 µM | 3.57 µM | 0.245 µM | 10.6 µM | 0.212 µM | 69.4 µM |
| C[C@H](NP(=O)(OC[C@@]1(CF)O[C@@H](c2ccc3c(N)ncnn23)[C@H](O)[C@@H]1O)Oc1ccccc1)C(=O)OC1CCC1 (stereo partly drawn) [Example 71, cyclobutyl ((((2R,3S,4R,5S)-5-(4-aminopyrrolo[2,1-f][1,2,4]triazin-7-yl)-2-(fluoromethyl)-3,4-dihydroxytetrahydrofuran-2-yl)methoxy)(phenoxy)phosphoryl)-L-alaninate] | – | – | – | – | – | – | 0.143 µM | 8.8 µM | 0.298 µM | 13 µM | 0.29 µM | > 100 µM |
